{"source": "paper PMC5087326", "about": "(Biochemical and biophysical research communications, 2016)", "key": {"[1]": {"target": "T1, LXRα (Homo sapiens, UniProt Q13133)", "T1 sequence (Q13133 209-447 limits assumed)": "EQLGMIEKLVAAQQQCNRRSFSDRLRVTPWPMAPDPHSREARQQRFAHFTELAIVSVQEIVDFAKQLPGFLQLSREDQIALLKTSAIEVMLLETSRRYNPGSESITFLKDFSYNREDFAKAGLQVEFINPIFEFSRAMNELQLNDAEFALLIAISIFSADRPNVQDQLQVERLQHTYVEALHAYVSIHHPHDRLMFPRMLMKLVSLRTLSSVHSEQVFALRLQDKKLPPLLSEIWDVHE", "test": "Luminex coregulator peptide recruitment with LXRα LBD at […]", "type": "cell-based"}, "[2]": {"target": "T2, LXRβ (Homo sapiens, UniProt P55055)", "T2 sequence (P55055 1-460)": "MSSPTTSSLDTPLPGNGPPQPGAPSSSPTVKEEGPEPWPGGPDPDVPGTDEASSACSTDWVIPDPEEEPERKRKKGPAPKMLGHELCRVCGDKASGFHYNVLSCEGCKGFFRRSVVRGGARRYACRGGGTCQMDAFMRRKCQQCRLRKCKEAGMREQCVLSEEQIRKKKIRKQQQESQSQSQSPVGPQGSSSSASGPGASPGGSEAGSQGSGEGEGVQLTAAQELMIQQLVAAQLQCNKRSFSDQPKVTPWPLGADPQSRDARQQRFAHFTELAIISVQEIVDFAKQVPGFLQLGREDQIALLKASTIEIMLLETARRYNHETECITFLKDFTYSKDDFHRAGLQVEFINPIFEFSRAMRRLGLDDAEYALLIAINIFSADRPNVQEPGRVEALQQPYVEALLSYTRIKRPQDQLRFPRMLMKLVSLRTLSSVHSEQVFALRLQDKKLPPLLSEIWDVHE", "test": "LXRE-driven luciferase cotransfection assay in HEK293 cells", "type": "cell-based"}}}
{"smiles": "Cc1cc(C)c(S(=O)(=O)N(Cc2ccc(-c3cccc(S(C)(=O)=O)c3)cc2)Cc2ccc(C(F)(F)F)o2)c(C)c1", "note": "[GSK2033]", "values": [{"measurement": "IC50", "setting": "[1]", "value": 17, "unit": "nM"}, {"measurement": "IC50", "setting": "[2]", "value": 9, "unit": "nM"}]}
